Measurements published in patent US20080103191A1, “ENTACAPONE-DERIVATIVES” (priority 2006, published 2008).
≈ marks a conversion by molar mass, not a printed value. Read-outs that look alike come from different tables or passages of the source.

Assays:
Format in all cases: physicochemical
[1] = Stability in TPGS/PG over 22 h; details: for Amount of compound: TPGS/PG, ambient temperature; for Amount of entacapone: entacapone formed in TPGS/PG
Experimental: The stability of selected compounds of formula I in TPGS/PG over 22 h is tested by the following procedure: […]
37.5 mg of compounds 15, 35 and 57, respectively […] of compound 63, are in each case added to 25 mL of TPGS/PG (25% by weight of TPGS, 75% by weight of PG) (concentration of compounds 15, 35, 57:1.5 mg/mL; concentration of compound 63:1.4 mg/mL). Each formulation obtained is stirred for 22 h at ambient temperature. The amount of the respective compound of formula I and the amount of entacapone are determined after 5 h, 8 h, 11 h, and 22 h by HPLC assay. Reversed phase gradient HPLC method, column YMC Pro C8, 50 mm×4.0 mm, 3 μm, Eluent A: Water:trifluoroacetic acid (100:0.5 (v/v)), Eluent B: Acetonitrile:trifluoroacetic acid (100:0.5 (v/v)). Column temperature 30° C., Flow rate 3.0 mL/min, Detection wavelength: 220 nm

[2] = Solubility in Labrasol and TPGS/PG formulations
Experimental: Selected lipophilic carbonate compounds of formula I with promising Caco-2 permeabilities are formulated with different lipids/lipophilic excipients and/or micelles forming compounds in order to increase their solubilities. The following formulations are prepared by mixing the ingredients mentioned below: • i) Formulations comprising solubilizers in the form of lipides/lipophilic excipients: • ia) Formulation comprising Labrasol® and the selected compounds of Formula I • Labrasol®: • Caprylocaproyl macrogol-8-glyceride (CAS No. 85536-07-8 and 84963-88-2). This is a mixture of mono-, di- and triesters of glycerol and of PEG 400 with medium-chain fatty acids (C8-C10) which is marketed, for example, by Gattefossé under the mark Labrasol®; Labrasol® has an HLB value (hydrophil-lipophil-balance, Griffin, W. C.: Classification of surface active agents by HLB, J. Soc. Cosmet. 1, 1949) of 14 and has the following composition by weight:
• ib) Formulation comprising NanoSolve® 5401 (Lipoid GmbH, Germany) and the selected compounds of formula I • ic) Formulation comprising TPGS/PG in a weight ratio of 25% by weight of TPGS to 75% by weight of PG and the selected compounds of formula I. • PG: propylene glycol • TPGS: Vitamin E TPGS NF (d-α-tocopheryl polyethylene glycol 1000 succinate) which is marketed, for example, by Eastman Chemical Co • ii) Formulation comprising a micelles forming agent: • iia) Aqueous formulation comprising 30% by weight of Cremophor® RH 40 (relating to the weight of the aqueous phase) in water and the selected compounds of formula I • Cremophor® RH 40: • Generic names: • Polyoxyl 40 Hydrogenated Castor Oil (USP/NF). • Macrogol-Glycerolhydroxystearat (DAB). • Polyoxyethylenglyceroltrihydroxystearat (DAC). • Cremophor RH 40 is a non-ionic solubilizer and emulsifying agent obtained by reacting 45 moles of ethylene oxide with 1 mole of hydrogenated castor oil. The main constituent of Cremophor RH 40 is glycerol polyethylene glycol oxystearate, which, together with fatty acid glycerol polyglycol esters, forms the hydrophobic part of the product. The hydrophilic part consists of polyethylene glycols and glycerol ethoxylate. Cremophor RH 40 is a white to yellowish thin paste at 20° C. The HLB value lies between 14 and 16. Cremophor RH 40 is marketed by BASF AG.
The solubility of selected compounds of formula I in these formulations is measured and compared to the solubility of the compounds in 0.1N HCl (pH 1.0), PBS buffer (pH 7.4), and two simulated gastric fluids (i.e., FaSSIF (pH 6.5) simulating fasting sate and FeSSIF (pH 5.0) simulating fed state) (see above for details).

[3] = Stability of Labrasol formulations in simulated gastric fluid (precipitate formation); details: for Precipitate formation, directly after addition: 3 mg in 1.5 mL Labrasol added to 10 mL SGF, visual inspection; for Precipitate formation, 5 min / Precipitate formation, 15 min / Precipitate formation, 30 min / Precipitate formation, 60 min / Precipitate formation, 24 h: Labrasol solution in SGF
Experimental: Simulated gastric fluid (SGF) is prepared as follows. 200 mg NaCl are dissolved in 70 mL H2O. 0.7 mL concentrated HCl is added. Subsequently, 320 mg of pepsin powder is added, and the mixture is filled up to 100 mL with H2O. A clear solution is obtained (pH 1-2).
1.5 mL of Labrasol® is added to 3 mg of the respective compound of formula I, and the obtained solutions are shaken. Subsequently, each of the solutions is added to 10 mL SGF by drop-wise addition. Precipitate formation is determined by visual inspection of each solution immediately after the addition of the solution comprising the respective compound of formula I in Labrasol® to SGF and after 5, 15, 30, and 60 min, and 24 h.

[4] = Log D (pH 7.4) by isocratic HPLC; details: YMC Pro C18 column, phosphate buffer pH 7.4/acetonitrile 45/55
How it was run: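 Retention measured by isocratic HPLC on a C18 column (150 mm×4.0 mm, 3 μm) eluted with phosphate buffer pH 7.4/acetonitrile 45/55 (v/v) at 1.2 ml/min, run time 15-60 min. Detection at 220 nm.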

[5] = 5 h, start 1.5 mg/mL (compound 63: 1.4 mg/mL)
[6] = Labrasol, oil or lipid, read-out: Solubility Labrasol ®
[7] = organic solvent or mixture, 25% by weight TPGS, 75% by weight PG, read-out: Solubility TPGS/PG

SMILES | Amount of compound [1, 5] | Amount of compound ([1]; 8 h) | Amount of compound ([1]; 11 h) | Amount of compound ([1]; 22 h) | Amount of entacapone ([1]; 5 h) | Amount of entacapone ([1]; 8 h) | Amount of entacapone ([1]; 11 h) | Amount of entacapone ([1]; 22 h) | solubility [2, 6] | solubility [2, 7] | Precipitate formation, directly after addition ([3]; after shaking) | Precipitate formation, directly after addition ([3]; initially, before shaking) | Precipitate formation, 5 min [3] | Precipitate formation, 15 min [3] | Precipitate formation, 30 min [3] | Precipitate formation, 60 min [3] | Precipitate formation, 24 h [3] | chromatographic logD [4]
CCN(CC)C(=O)/C(C#N)=C/c1cc(OC(=O)OCC2CCCCC2)c(O)c([N+](=O)[O-])c1 [Compound 57, Carbonic acid 5-((E)-2-cyano-2-diethylcarbamoyl-vinyl)-2-hydroxy-3-nitro-phenyl ester cyclohexylmethyl ester] | 1.37 mg/mL | 1.39 mg/mL | 1.35 mg/mL | 1.31 mg/mL | 0.03 mg/mL | 0.04 mg/mL | 0.05 mg/mL | 0.08 mg/mL | 22000 µg/mL (≈ 49.4 mM) | 2500 µg/mL (≈ 5.61 mM) | clear after shaking | First: white precipitate; | clear | clear | clear | clear | clear | 2.3
CCCCCCCCOC(=O)Oc1cc(/C=C(\C#N)C(=O)N(CC)CC)cc([N+](=O)[O-])c1O [Compound 35, Carbonic acid 5-((E)-2-cyano-2-diethylcarbamoyl-vinyl)-2-hydroxy-3-nitro-phenyl ester octyl ester] | 1.21 mg/mL | 1.36 mg/mL | 1.40 mg/mL | 1.23 mg/mL | 0.03 mg/mL | 0.05 mg/mL | 0.07 mg/mL | 0.08 mg/mL | > 36000 µg/mL | 2300 µg/mL (≈ 4.98 mM) | clear after shaking | First: white precipitate; | clear | clear | clear | clear | clear | 3.1
CCCC(C)OC(=O)Oc1cc(/C=C(\C#N)C(=O)N(CC)CC)cc([N+](=O)[O-])c1O (stereo not drawn) [Compound 63, Carbonic acid 5-((E)-2-cyano-2-diethylcarbamoyl-vinyl)-2-hydroxy-3-nitro-phenyl ester 1-methyl-butyl ester] | 1.25 mg/mL | 1.12 mg/mL | 1.16 mg/mL | 1.08 mg/mL | 0.02 mg/mL | 0.02 mg/mL | 0.02 mg/mL | 0.03 mg/mL | 10000 µg/mL (≈ 23.8 mM) | 1800 µg/mL (≈ 4.29 mM) | clear after shaking | First: white precipitate; | clear | clear | clear | clear | clear | 1.4
CCCCC(CC)COC(=O)Oc1cc(/C=C(\C#N)C(=O)N(CC)CC)cc([N+](=O)[O-])c1O (stereo not drawn) [Compound 15, Carbonic acid 5-((E)-2-cyano-2-diethylcarbamoyl-vinyl)-2-hydroxy-3-nitro-phenyl ester 2-ethyl-hexyl ester] | 1.23 mg/mL | 1.23 mg/mL | 1.16 mg/mL | 1.05 mg/mL | 0.05 mg/mL | 0.06 mg/mL | 0.10 mg/mL | 0.17 mg/mL | 50000 µg/mL (≈ 108 mM) | 2400 µg/mL (≈ 5.2 mM) | clear after shaking | First: white precipitate; | clear | clear | clear | clear | clear | 2.9
